Results on eight molecules are retold here after patent publication US8648111B2, “N1-2-thiophene-2-ylethyl-N2-substituted biguanide derivate, preparation method thereof, and pharmaceutical composition containing the same as active ingredients” (Hanall Biopharma Co., Ltd., priority 2008, dated 2014).

Read-outs that look alike come from different tables or passages of the source.

Holding throughout (type): cell-based
Experiment [1] deals with HepG2 cells. In words: Measurement of cholesterol synthesis inhibitory ability (cholesterol content in cell lysates, Amplex red). Conditions: 24 hours, HepG2, lower value = stronger cholesterol synthesis inhibition; for Cholesterol (100 uM) Aver.: 100 uM compound; for Cholesterol (500 uM) Aver.: 500 uM compound. On the procedure: (§1) 2 mM metformin was used as a comparative compound for each of the plates (control group).
A cholesterol synthesis inhibitory ability, which is an important function of AMPK (AMP-activated protein kinase), was measured using HepG2 cells (ATCC: American Type Culture Collection) as a hepatic cell model according to the following procedure.
The hepatic cell model HepG2 cells were cultured in 1% serum-containing media (DMEM (Gibco), FBS (Gibco)) for 24 hours, and then treated with 100 μM or 500 μM of each of the compounds prepared in Examples for 24 hours. Then, the cells were disrupted with a lysis solution (0.1 M potassium phosphate, pH 7.4, 0.05 M NaCl, 5 mM cholic acid, 0.1% Triton X-100 (Sigma)). To the disrupted cells was added the same volume of a reaction solution (2 U/mL of a cholesterol oxidizing agent, 2 U/mL of a peroxidase, 0.2 U/mL of a cholesterol esterase, and 300 μM of Amplex red as a fluorescent factor (Molecular Probe)), which was allowed to react at 37° C. for 30 minutes. After completion of the reaction, the content of cholesterol formed in the cell lysates was measured at a wavelength of 560/590 nm (ex/em) using a fluorescence microscope.
A lower measurement value means an increased cholesterol synthesis inhibitory ability.

For experiment [2], the system named is HepG2 cells. In words: Measurement of triglyceride (triglyceride content in cell lysates, Amplex red). Conditions: 24 hours, HepG2, lower value = stronger triglyceride synthesis inhibition; for Triglyceride (100 uM) Aver.: 100 uM compound; for Triglyceride (500 uM) Aver.: 500 uM compound. As to the method: as §1
HepG2 cells (ATCC: American Type Culture Collection) were cultured in 1% serum-containing media (DMEM (Gibco), FBS (Gibco)) for 24 hours, and then treated with 100 μM or 500 μM of each of the compounds prepared in Examples for 24 hours. Then, the cells were disrupted with a lysis solution (0.1 M potassium phosphate, pH 7.4, 0.05 M NaCl, 5 mM cholic acid, 0.1% Triton X-100). […] After completion of the reaction, the content of triglyceride formed in the cell lysates was measured at a wavelength of 560/590 nm (ex/em) using a fluorescence microscope.
A lower measurement value means an increased triglyceride synthesis inhibitory ability.

Experiment [3] relates to HepG2 cells. In words: Measurement of gluconeogenesis inhibitory ability (14C-lactate, glucose formed in cells). As to the method: as §1
HepG2 cells (ATCC: American Type Culture Collection) were cultured in 10% serum-containing high glucose media, transferred to no serum-containing low glucose media (DMEM (Gibco), FBS (Gibco)), and then treated with 100 μM of each of the compounds for 24 hours. Then, the cells were treated with 0.5 μCi ^14C-lactate (Amersham Pharmacia) and 10 mM L-lactate (Sigma), and cultured for 4 hours. After cultivation, the media were removed therefrom, and the cells were washed with PBS, treated with 0.1N NaOH and kept at room temperature for 1 hour. Then, the cells were neutralized with 1N HCl, and the content of glucose formed in the cells was measured with a liquid scintillation counter.
A lower measurement value means an increased gluconeogenesis inhibitory ability.

In experiment [4] the test system is C2C12 cells. The experiment in a line: Measurement of glucose absorption ability (3H-deoxy-glucose uptake with insulin). As to conditions: 100 uM compound with 1 μM insulin, 24 hours, differentiated C2C12; higher value = stronger; more than 200% counts as glucose absorption ability. On the procedure: as §1
C2C12 cells (ATCC: American Type Culture Collection), a muscle cell model, were induced to differentiate into muscle cells in 2% bovine fetal serum-containing media (DMEM (Gibco), FBS (Gibco)) for 6 days. The C2C12 cells which differentiated into muscle cells were transferred to serum-free low glucose media (DMEM (Gibco), FBS (Gibco)), treated with 100 μM of each of the compounds, and then cultured with 1 μM of insulin for 24 hours. After cultivation, the cells were treated with 1 μCi ^3H-deoxy-glucose (Amersham Pharmacia) and 10 μM deoxy-glucose (Sigma) at 37° C. for 15 minutes. The media were removed therefrom, and the cells were washed twice with PBS (phosphate buffered saline). The washed cells were treated with 0.1N NaOH and neutralized with 1N HCl. The content of glucose absorbed into the cells was measured with a liquid scintillation counter.
A higher measurement value means a stronger ability to reduce insulin resistance.

Setting [5] is: 100 uM compound, 24 hours, HepG2, lower value = stronger gluconeogenesis inhibition.

Consider `CCCCCCN=C(NCCc1cccs1)NC(=N)N.Cl` [Example 4, N1-2-(thiophen-2-ylethyl)-N2-hexyl biguanide hydrochloride], for which, in experiment [1], the “Cholesterol (100 uM) Aver.” value worked out at 33.81 and the “Cholesterol (500 uM) Aver.” value was 51.74. In experiment [2], the “Triglyceride (100 uM) Aver.” value was 22.80 and the “Triglyceride (500 uM) Aver.” value is recorded as 3.22. Further, in experiment [3] (setting [5]), the “Gluconeogenesis inhibition (100 uM) Aver.” value (“Gluconeogenesis inhibition” for short) is reported as 26.40. Moreover, in experiment [4], the “Glucose absorption (100 uM) Aver.” value is listed as 14.31%.
Consider “N1-2-(5-ethylthiophen-2-ylethyl)-N2-methyl biguanide hydrochloride [Example 46]”, for which, in experiment [1], the “Cholesterol (100 uM) Aver.” value was 84.52 and the “Cholesterol (500 uM) Aver.” value is given as 71.64. Also, in experiment [2], the “Triglyceride (100 uM) Aver.” value was determined as 90.82 and the “Triglyceride (500 uM) Aver.” value came out at 86.07. Moreover, in experiment [3], the “Gluconeogenesis inhibition” value came to 23.65. Also, the “Glucose absorption (100 uM) Aver.” value in experiment [4] is on record as 353.21%.
Turning to `CCCCCN=C(NCCc1cccs1)NC(=N)N.Cl` [Example 23, N1-2-(thiophen-2-ylethyl)-N2-pentyl biguanide hydrochloride], in experiment [1], the “Cholesterol (100 uM) Aver.” value is on record as 11.05 and the “Cholesterol (500 uM) Aver.” value is given as 15.66. In experiment [2], the “Triglyceride (100 uM) Aver.” value turned out to be 13.83 and the “Triglyceride (500 uM) Aver.” value came to 17.16. Besides, in experiment [3] (setting [5]), the “Gluconeogenesis inhibition” value is 2.96. The “Glucose absorption (100 uM) Aver.” value in experiment [4] amounted to 0.00%.
Turning to `Cl.N=C(N)NC(=Nc1ccccc1)NCCc1cccs1` [Example 20, N1-2-(thiophen-2-ylethyl)-N2-phenyl biguanide hydrochloride], in experiment [1], the “Cholesterol (100 uM) Aver.” value is recorded as 45.7 and the “Cholesterol (500 uM) Aver.” value was found to be 18.3. For the same molecule, in experiment [2], the “Triglyceride (100 uM) Aver.” value amounted to 67.5 and the “Triglyceride (500 uM) Aver.” value was found to be 57.6. In addition, the “Gluconeogenesis inhibition” value in experiment [3] (setting [5]) is listed as 87.36. Also, in experiment [4], the “Glucose absorption (100 uM) Aver.” value turned out to be 125.4%.
With `Cl.N=C(N)NC(=Nc1cccc(Br)c1)NCCc1cccs1` [Example 34, N1-2-(thiophen-2-ylethyl)-N2-(3-bromophenyl) biguanide hydrochloride], in experiment [1], the “Cholesterol (100 uM) Aver.” value was found to be 26.00 and the “Cholesterol (500 uM) Aver.” value is listed as 32.53. For the same molecule, in experiment [2], the “Triglyceride (100 uM) Aver.” value worked out at 26.57 and the “Triglyceride (500 uM) Aver.” value is on record as 19.49. In addition, the “Gluconeogenesis inhibition” value in experiment [3] (setting [5]) was found to be 4.96. Moreover, the “Glucose absorption (100 uM) Aver.” value in experiment [4] was found to be 6.05%.
For the molecule `CCc1ccccc1N=C(NCCc1cccs1)NC(=N)N.Cl` [Example 9, N1-2-(thiophen-2-ylethyl)-N2-2-ethylphenyl biguanide hydrochloride], in experiment [1], the “Cholesterol (100 uM) Aver.” value is recorded as 39.25 and the “Cholesterol (500 uM) Aver.” value turned out to be 7.55. In addition, in experiment [2], the “Triglyceride (100 uM) Aver.” value is given as 74.99 and the “Triglyceride (500 uM) Aver.” value was determined as 19.51. Further, the “Gluconeogenesis inhibition” value in experiment [3] (setting [5]) was 74.23. Also, in experiment [4], the “Glucose absorption (100 uM) Aver.” value stood at 252.6%.
Turning to `Cl.N=C(N)NC(=Nc1ccc(Br)cc1)NCCc1cccs1` [Example 33, N1-2-(thiophen-2-ylethyl)-N2-(4-bromophenyl) biguanide hydrochloride], in experiment [1], the “Cholesterol (100 uM) Aver.” value is 24.52 and the “Cholesterol (500 uM) Aver.” value is listed as 31.66. In experiment [2], the “Triglyceride (100 uM) Aver.” value is given as 29.12 and the “Triglyceride (500 uM) Aver.” value is 27.48. Also, in experiment [3] (setting [5]), the “Gluconeogenesis inhibition” value was found to be 17.03. Besides, the “Glucose absorption (100 uM) Aver.” value in experiment [4] was determined as 14.24%.
As to `Cl.N=C(N)NC(=Nc1cccc2ccccc12)NCCc1cccs1` [Example 3, N1-2-(thiophen-2-ylethyl)-N2-1-naphthyl biguanide hydrochloride], in experiment [1], the “Cholesterol (100 uM) Aver.” value was determined as 30.90 and the “Cholesterol (500 uM) Aver.” value is recorded as 31.14. Besides, in experiment [2], the “Triglyceride (100 uM) Aver.” value was determined as 5.28 and the “Triglyceride (500 uM) Aver.” value is listed as −6.37. Moreover, the “Gluconeogenesis inhibition” value in experiment [3] (setting [5]) is on record as 3.73. The “Glucose absorption (100 uM) Aver.” value in experiment [4] is 15.10%.
